This passage reports IC50 results from patent US10544143B2, “4-azaindole compounds” (BRISTOL-MYERS SQUIBB COMPANY, priority 2017, dated 2020).

Read-outs that look alike come from different tables or passages of the source. Bounds are passed on as bounds.

Assay [1] concerns the target human TLR7 (Homo sapiens (Human), UniProt Q9NYK1). As to the kind of experiment: TLR7 inhibition reporter assay (HEK-Blue SEAP). It is filed as cell-based. (In a reporter assay the amount or activity of a reporter protein is the signal.)
Assay [2] deals with human TLR9 (Homo sapiens (Human), UniProt Q9NR96). As to the kind of experiment: TLR9 inhibition reporter assay (HEK-Blue SEAP).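 Also: SEAP driven by an IFN-β minimal promoter with NF-κB and AP-1 sites, read after 22 h, compounds dosed 0.05 nM–50 µM, inhibition scaled between agonist plus DMSO and reference-inhibitor wells.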 The following applies: read-out: TLR9 IC50.
Assay [3] deals with human TLR8 (Homo sapiens (Human), UniProt Q9NR97). The assay is described as follows: TLR8 inhibition reporter assay (HEK-Blue SEAP).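 Also: SEAP driven by IFN-β minimal promoter carrying NF-κB and AP-1 sites, compounds dosed 0.05 nM to 50 µM for 22 h, inhibition scaled between agonist-plus-DMSO and reference-inhibitor wells.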 The settings on record: read-out: TLR8 IC50.
[4] abbreviates: HEK-Blue cells overexpressing human TLR7, SEAP reporter, gardiquimod 7.5 μM.
Where [5] appears, read: HEK-Blue cells overexpressing human TLR9, SEAP reporter, ODN2006 5 nM.
[6] abbreviates: HEK-Blue cells overexpressing human TLR8, SEAP reporter, R848 15.9 μM.
[7] abbreviates: HEK-Blue cells overexpressing human TLR7, gardiquimod 7.5 μM stimulation, SEAP reporter.
Setting [8] is: HEK-Blue cells overexpressing human TLR9, ODN2006 5 nM stimulation, SEAP reporter.
[9] abbreviates: HEK-Blue cells overexpressing human TLR8, R848 15.9 μM stimulation, SEAP reporter.
The mark [10] stands for this setting: HEK-Blue human TLR7 cells, gardiquimod 7.5 μM.
[11] abbreviates: HEK-Blue human TLR9 cells, ODN2006 5 nM.
Where [12] appears, read: HEK-Blue human TLR8 cells, R848 15.9 μM.

human TLR9, sequence (Q9NR96 26-1032): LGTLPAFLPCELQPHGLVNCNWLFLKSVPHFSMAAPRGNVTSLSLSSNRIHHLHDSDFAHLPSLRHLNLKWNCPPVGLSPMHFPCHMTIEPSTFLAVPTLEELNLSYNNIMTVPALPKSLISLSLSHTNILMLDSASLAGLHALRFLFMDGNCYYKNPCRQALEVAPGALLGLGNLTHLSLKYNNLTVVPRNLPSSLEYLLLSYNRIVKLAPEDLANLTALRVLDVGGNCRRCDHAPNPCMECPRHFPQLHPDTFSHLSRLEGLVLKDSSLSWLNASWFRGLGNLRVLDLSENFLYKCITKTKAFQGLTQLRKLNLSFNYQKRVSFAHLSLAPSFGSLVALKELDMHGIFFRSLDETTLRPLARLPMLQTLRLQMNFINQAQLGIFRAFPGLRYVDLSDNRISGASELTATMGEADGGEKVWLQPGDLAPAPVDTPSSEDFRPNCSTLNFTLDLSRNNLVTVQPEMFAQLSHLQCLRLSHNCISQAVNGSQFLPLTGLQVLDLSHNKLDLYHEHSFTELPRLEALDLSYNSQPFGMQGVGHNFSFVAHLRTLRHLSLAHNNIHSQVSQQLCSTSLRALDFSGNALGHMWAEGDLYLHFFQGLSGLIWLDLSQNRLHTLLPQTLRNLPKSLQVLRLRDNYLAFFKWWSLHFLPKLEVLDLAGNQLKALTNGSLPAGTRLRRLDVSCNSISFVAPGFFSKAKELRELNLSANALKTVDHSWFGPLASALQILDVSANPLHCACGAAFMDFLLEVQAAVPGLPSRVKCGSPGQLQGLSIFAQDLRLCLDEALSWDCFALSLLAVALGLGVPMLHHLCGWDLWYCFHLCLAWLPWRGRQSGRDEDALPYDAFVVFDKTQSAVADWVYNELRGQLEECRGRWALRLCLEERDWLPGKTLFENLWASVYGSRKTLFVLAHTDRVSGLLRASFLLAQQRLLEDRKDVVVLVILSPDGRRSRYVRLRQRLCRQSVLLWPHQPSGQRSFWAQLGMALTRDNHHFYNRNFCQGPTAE
human TLR7, sequence (Q9NYK1 27-1049): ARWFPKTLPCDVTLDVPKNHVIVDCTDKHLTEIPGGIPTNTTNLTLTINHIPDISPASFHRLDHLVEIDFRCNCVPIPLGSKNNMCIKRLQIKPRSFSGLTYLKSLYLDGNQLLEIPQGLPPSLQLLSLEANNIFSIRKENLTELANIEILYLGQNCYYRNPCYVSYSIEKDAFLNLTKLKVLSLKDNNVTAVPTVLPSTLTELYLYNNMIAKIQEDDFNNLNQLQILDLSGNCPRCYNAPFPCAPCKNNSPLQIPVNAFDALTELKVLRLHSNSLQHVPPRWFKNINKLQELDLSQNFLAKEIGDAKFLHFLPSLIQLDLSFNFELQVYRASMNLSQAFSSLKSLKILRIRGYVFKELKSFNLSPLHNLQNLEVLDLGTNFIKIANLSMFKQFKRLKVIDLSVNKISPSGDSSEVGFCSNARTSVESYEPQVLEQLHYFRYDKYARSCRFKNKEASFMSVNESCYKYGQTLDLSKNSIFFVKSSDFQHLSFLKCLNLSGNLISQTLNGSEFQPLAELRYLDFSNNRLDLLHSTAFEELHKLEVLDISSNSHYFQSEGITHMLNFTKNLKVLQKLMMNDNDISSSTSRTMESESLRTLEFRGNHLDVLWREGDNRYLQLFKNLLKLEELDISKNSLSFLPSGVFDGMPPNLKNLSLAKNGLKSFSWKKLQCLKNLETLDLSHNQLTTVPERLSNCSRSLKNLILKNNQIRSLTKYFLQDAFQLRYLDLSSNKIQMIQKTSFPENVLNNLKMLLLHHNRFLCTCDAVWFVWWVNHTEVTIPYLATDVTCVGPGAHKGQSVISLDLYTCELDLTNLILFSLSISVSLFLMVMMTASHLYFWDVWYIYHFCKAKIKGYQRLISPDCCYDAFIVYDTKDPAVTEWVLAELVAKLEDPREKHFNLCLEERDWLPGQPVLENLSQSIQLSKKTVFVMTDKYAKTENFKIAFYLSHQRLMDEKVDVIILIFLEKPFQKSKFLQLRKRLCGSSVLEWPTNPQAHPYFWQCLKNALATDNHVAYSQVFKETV
human TLR8, sequence (Q9NR97 27-1041): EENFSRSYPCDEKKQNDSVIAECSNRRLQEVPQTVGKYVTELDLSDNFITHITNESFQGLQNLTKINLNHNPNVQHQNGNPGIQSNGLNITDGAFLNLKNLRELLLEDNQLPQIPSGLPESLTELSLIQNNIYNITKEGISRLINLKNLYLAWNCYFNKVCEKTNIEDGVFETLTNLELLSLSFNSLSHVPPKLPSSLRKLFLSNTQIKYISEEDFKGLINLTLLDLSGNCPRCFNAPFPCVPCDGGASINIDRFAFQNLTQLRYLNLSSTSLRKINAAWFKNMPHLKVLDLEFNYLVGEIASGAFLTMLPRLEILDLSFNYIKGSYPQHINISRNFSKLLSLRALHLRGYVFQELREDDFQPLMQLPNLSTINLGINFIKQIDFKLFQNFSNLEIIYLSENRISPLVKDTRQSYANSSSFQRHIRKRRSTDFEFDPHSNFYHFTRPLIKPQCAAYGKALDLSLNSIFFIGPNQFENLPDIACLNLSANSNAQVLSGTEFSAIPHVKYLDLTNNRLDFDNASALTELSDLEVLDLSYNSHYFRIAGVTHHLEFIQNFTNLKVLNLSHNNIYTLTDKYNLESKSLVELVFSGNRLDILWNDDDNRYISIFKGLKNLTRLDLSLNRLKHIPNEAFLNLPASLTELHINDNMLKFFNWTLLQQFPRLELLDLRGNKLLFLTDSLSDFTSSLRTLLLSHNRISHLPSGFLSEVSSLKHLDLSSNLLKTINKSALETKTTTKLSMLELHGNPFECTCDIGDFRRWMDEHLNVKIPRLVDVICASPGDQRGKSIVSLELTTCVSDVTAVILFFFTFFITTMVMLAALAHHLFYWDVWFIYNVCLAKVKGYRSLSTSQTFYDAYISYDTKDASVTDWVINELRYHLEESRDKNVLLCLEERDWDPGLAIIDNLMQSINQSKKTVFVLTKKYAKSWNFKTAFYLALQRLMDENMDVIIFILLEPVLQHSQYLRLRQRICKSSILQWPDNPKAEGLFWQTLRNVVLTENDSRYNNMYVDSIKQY

Regarding `Cc1c(-c2[nH]c3ccc(C4CN(CC(C)(C)O)C4)nc3c2C(C)C)cn2ncnc2c1C` [Example 654], the results for the half-inhibitory concentration (IC50) in assay [1] (setting [4]), in assay [2] (setting [5]) and in assay [3] (setting [6]) were 6.4 nM, 4920 nM and 9.6 nM, respectively.
With `COc1cc(-c2[nH]c3cc(F)c(C4CCC(NCC5(C)COC5)CC4)nc3c2C(C)C)cn2ncnc12` (stereo not drawn) [Example 342], the concentration for half-maximal inhibition (IC50) in assay [1] (setting [7]) is 0.98 nM; in assay [2] (setting [8]) it was 1910 nM; in assay [3] (setting [9]) it was 3.9 nM.
In the same order, the values of `COc1cc(-c2[nH]c3cc(C)c(C4CCC(NC5COC5)CC4)nc3c2C(C)C)cn2ncnc12` (stereo not drawn) [Example 309] are 0.31 nM, 268 nM and 4.6 nM.
Take `Cc1cc(-c2[nH]c3ccc(C4CCNCC4)nc3c2C(C)C)cn(C)c1=O` [Example 515]: the figures for the IC50 in assay [1] (setting [4]), in assay [2] (setting [5]) and in assay [3] (setting [6]) were 7.9 nM, 223 nM and 21 nM, respectively.
On the same counts, the results for `Cc1c(-c2[nH]c3ccc(C4CN(C(C)C)C4)nc3c2C(C)C)cn2ncnc2c1C` [Example 656] are 1.4 nM, 1850 nM and 4.7 nM.
In the case of `Cc1c(-c2[nH]c3ccc(C4CCC(N5CC(C)(O)C5)CC4)nc3c2C(C)C)cn2ncnc2c1C` (stereo not drawn) [Example 1044], the results for the IC50 in assay [1] (setting [10]), in assay [2] (setting [11]) and in assay [3] (setting [12]) were 4.1 nM, 3600 nM and 9.2 nM, respectively.
On the same counts, the results for `Cc1c(-c2[nH]c3ccc(N4C[C@@H](C)N(C(=O)CN5CC6(COC6)C5)C[C@@H]4C)nc3c2C(C)C)cn2ncnc2c1C` [Example 896] are 0.69 nM, 8440 nM and 0.37 nM.
Regarding `Cc1c(-c2[nH]c3ccc(C4CCC(N(CC#N)CC(=O)N(C)C)CC4)nc3c2C(C)C)cn2ncnc2c1C` (stereo not drawn) [Example 459], the IC50 came to 6.2 nM in assay [1] (setting [4]), 2790 nM in assay [2] (setting [5]) and 4.3 nM in assay [3] (setting [6]).
Take `CC(C)c1c(-c2cn(C)c3ncccc23)[nH]c2ccc(C3CCC(N4CC5(C4)CS(=O)(=O)C5)CC3)nc12` (stereo not drawn) [Example 256]: the IC50 in assay [1] (setting [7]) stood at 1.2 nM; in assay [2] (setting [8]), 335 nM; in assay [3] (setting [9]), 3.7 nM.
As to `Cc1cc(-c2[nH]c3ccc(C4CNCCO4)nc3c2C(C)C)cn(C)c1=O` (stereo not drawn) [Example 679], the values for the half-inhibitory concentration (IC50) in assay [1] (setting [4]), in assay [2] (setting [5]) and in assay [3] (setting [6]) were 16 nM, 20700 nM and 5.8 nM, respectively.
Turning to `Cc1cc(-c2[nH]c3ccc(C4CCC(N5CC6(COC6)C5)CC4)nc3c2C(C)C)cn2ncnc12` (stereo not drawn) [Example 288], the 50% inhibitory concentration (IC50) in assay [1] (setting [7]) amounted to 28 nM; in assay [2] (setting [8]) it was 6450 nM; in assay [3] (setting [9]), 114 nM.
On the same counts, the results for `CNC1CCC(c2ccc3[nH]c(-c4cc(OC)c5ncnn5c4)c(C(C)C)c3n2)CC1` (stereo not drawn) [Example 188] are 0.29 nM, 158 nM and 2.5 nM.
Turning to `COCCN(C1CCC(c2ccc3[nH]c(-c4cn5ncnc5c(C)c4C)c(C(C)C)c3n2)CC1)C1(CO)COC1` (stereo not drawn) [Example 500], the IC50 in assay [1] (setting [4]) is 19 nM; in assay [2] (setting [5]) it was above 50000 nM; in assay [3] (setting [6]), 39 nM.
Turning to `CC(C)c1c(-c2cc(CO)c3ncnn3c2)[nH]c2ccc(N3CCC(NCC(=O)N(C)C)CC3)nc12` [Example 84], the IC50 in assay [1] (setting [7]) was 2200 nM; in assay [2] (setting [8]), above 50000 nM; in assay [3] (setting [9]) it was above 3120 nM.
In the same order, the values of `COc1cc(-c2[nH]c3cc(C)c(C4CCC(NCC5(C)COC5)CC4)nc3c2C(C)C)cn2ncnc12` (stereo not drawn) [Example 312] are 0.26 nM, 577 nM and 1.6 nM.
As for `Cc1c(-c2[nH]c3ccc(C4CCC(N5CCC5)CC4)nc3c2C(C)C)cn2ncnc2c1C` (stereo not drawn) [Example 386], the IC50 in assay [1] (setting [7]) was determined as 1.5 nM; in assay [2] (setting [8]), 1440 nM; in assay [3] (setting [9]) it was 4.2 nM.
Regarding `COc1cc(-c2[nH]c3ccc(C4CC(N(C)CC5(C)COC5)C4)nc3c2C(C)C)cn2ncnc12` (stereo not drawn) [Example 643], the values for the concentration for half-maximal inhibition (IC50) in assay [1] (setting [4]), in assay [2] (setting [5]) and in assay [3] (setting [6]) were 5.4 nM, 3170 nM and 5.3 nM, respectively.
As to `CNC1CCC(c2ccc3[nH]c(-c4cn(CC#N)c5ncccc45)c(C(C)C)c3n2)CC1` (stereo not drawn) [Example 270], the half-maximal inhibitory concentration (IC50) worked out at 38 nM in assay [1] (setting [7]), 322 nM in assay [2] (setting [8]) and 28 nM in assay [3] (setting [9]).
With `COc1cc(-c2[nH]c3cc(F)c(C4CCN(C(=O)CN(C)C)CC4)nc3c2C(C)C)cn2ncnc12` [Example 577], the values for the IC50 in assay [1] (setting [4]), in assay [2] (setting [5]) and in assay [3] (setting [6]) were 0.69 nM, 1880 nM and 7.4 nM, respectively.
On to `CC(C)c1c(-c2cn(C)c3ncccc23)[nH]c2ccc(C3CCC(NC4CCOCC4)CC3)nc12` (stereo not drawn) [Example 265], for which the figures for the half-maximal inhibitory concentration (IC50) in assay [1] (setting [7]), in assay [2] (setting [8]) and in assay [3] (setting [9]) were 0.59 nM, 392 nM and 0.91 nM, respectively.
In the same order, the values of `COc1cc(-c2[nH]c3cc(C)c(C4CCC(N5CCC5)CC4)nc3c2C(C)C)cn2ncnc12` (stereo not drawn) [Example 326] are 0.13 nM, 988 nM and 3.7 nM.
As for `Cc1c(-c2[nH]c3ccc(N4[C@@H]5CC[C@H]4CN(CCS(C)(=O)=O)C5)nc3c2C(C)C)cn2ncnc2c1C` [Example 748], the concentration for half-maximal inhibition (IC50) in assay [1] (setting [4]) is 7.5 nM; in assay [2] (setting [5]), 37900 nM; in assay [3] (setting [6]), 15 nM.
With `COc1ncc(CN(Cc2cnc(OC)nc2)C2CCN(c3ccc4[nH]c(-c5cn6ncnc6c(C)c5C)c(C(C)C)c4n3)CC2)cn1` [Example 75], the figures for the IC50 in assay [1] (setting [7]), in assay [2] (setting [8]) and in assay [3] (setting [9]) were 18 nM, above 50000 nM and 9.8 nM, respectively.
On the same counts, the results for `CNC1CN(c2ccc3[nH]c(-c4cn5ncnc5c(C)c4C)c(C(C)C)c3n2)C1` [Example 20] are 2.7 nM, 614 nM and 1.3 nM.
On the same counts, the results for `CC(C)c1c(-c2cn(C)c3ncncc23)[nH]c2ccc(N3CCN(C)CC3)nc12` [Example 125] are 2.6 nM, 6540 nM and 0.66 nM.
For `Cc1c(-c2[nH]c3ccc(C4CCC5(CC4)CN(C(C)C)C5)nc3c2C(C)C)cn2ncnc2c1C` [Example 493], the IC50 in assay [1] (setting [4]) was 1760 nM; in assay [2] (setting [5]) it was above 50000 nM; in assay [3] (setting [6]) it was 3790 nM.
In the case of `CC(C)c1c(-c2cc(CO)c3ncnn3c2)[nH]c2ccc(C3CCC(N(C)C4COC4)CC3)nc12` (stereo not drawn) [Example 252], the half-maximal inhibitory concentration (IC50) in assay [1] (setting [7]) turned out to be 8 nM; in assay [2] (setting [8]), 7260 nM; in assay [3] (setting [9]) it was 10 nM.
Turning to `Cc1c(-c2[nH]c3ccc(N4CC5(CN(CCCS(C)(=O)=O)C5)C4)nc3c2C(C)C)cn2ncnc2c1C` [Example 1007], the IC50 in assay [1] (setting [10]) stood at 3.2 nM; in assay [2] (setting [11]), 2340 nM; in assay [3] (setting [12]), 4 nM.
In the same order, the values of `Cc1c(-c2[nH]c3ccc(N4CCN(C(C)C)C[C@@H]4C)nc3c2C(C)C)cn2ncnc2c1C` [Example 816] are 1.7 nM, 8720 nM and 1.7 nM.
Consider `Cc1cc(-c2[nH]c3ccc(C4CCC(N5CC6(COC6)C5)CC4)nc3c2C(C)C)cc(C)n1` (stereo not drawn) [Example 286], for which the results for the IC50 in assay [1] (setting [7]), in assay [2] (setting [8]) and in assay [3] (setting [9]) were 5.2 nM, 1570 nM and 9.2 nM, respectively.
With `Cc1c(-c2[nH]c3ccc([C@H]4CC[C@@H](N5CC6(C5)CS(=O)(=O)C6)CC4)nc3c2C(C)C)cn2ncnc2c1C` [Example 1053], the values for the IC50 in assay [1] (setting [10]), in assay [2] (setting [11]) and in assay [3] (setting [12]) were 2.5 nM, 4810 nM and 4.8 nM, respectively.
In the same order, the values of `Cc1c(-c2[nH]c3ccc(N4CCN(C(=O)CN5CCC5)C[C@H]4C)nc3c2C(C)C)cn2ncnc2c1C` [Example 834] are 0.46 nM, 4370 nM and 2.5 nM.

The IC50 is the concentration needed to halve the response being measured.
